Assay [1] addresses Caspase-8 (Homo sapiens, UniProt Q14790). The assay can be described thus: Inhibitory activity towards CASP8 using fluorogenic substrates following an incubation for over 30 min at 37 degree C.
Assay [2] deals with T1, Caspase-3 (Homo sapiens, UniProt P42574).
T1 sequence (P42574 whole entry): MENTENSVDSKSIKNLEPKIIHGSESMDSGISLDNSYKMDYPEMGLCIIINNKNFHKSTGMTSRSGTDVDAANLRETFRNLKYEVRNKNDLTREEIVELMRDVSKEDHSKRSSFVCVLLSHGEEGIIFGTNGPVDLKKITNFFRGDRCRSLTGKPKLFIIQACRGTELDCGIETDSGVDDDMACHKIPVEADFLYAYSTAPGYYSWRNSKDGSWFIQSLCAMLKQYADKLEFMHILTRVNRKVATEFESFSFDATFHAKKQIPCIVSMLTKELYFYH
The assay can be described thus: Inhibitory activity towards CASP3 using fluorogenic substrates following an incubation for over 30 min at 37 degree C.

Assay [3] addresses T2, Caspase-1 (Homo sapiens, UniProt P29466).
T2 sequence (P29466 whole entry): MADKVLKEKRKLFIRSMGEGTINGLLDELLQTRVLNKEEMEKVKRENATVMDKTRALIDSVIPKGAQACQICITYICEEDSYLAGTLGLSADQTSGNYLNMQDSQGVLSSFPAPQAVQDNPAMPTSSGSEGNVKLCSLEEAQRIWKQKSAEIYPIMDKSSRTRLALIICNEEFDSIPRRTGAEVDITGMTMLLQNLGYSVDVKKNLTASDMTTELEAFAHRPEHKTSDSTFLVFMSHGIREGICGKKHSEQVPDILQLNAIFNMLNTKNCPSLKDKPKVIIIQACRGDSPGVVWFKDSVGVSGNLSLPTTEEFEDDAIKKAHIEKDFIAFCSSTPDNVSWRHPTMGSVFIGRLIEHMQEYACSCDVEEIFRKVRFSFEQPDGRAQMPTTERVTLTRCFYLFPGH
Nature of the assay: Inhibitory activity towards CASP1 using fluorogenic substrates following an incubation for over 30 min at 37 degree C.

The subject of assay [4] is THP-1. Nature of the assay: Inhibitory concentration against IL-1b production in THP-1 cells. The assay is classed as functional, cell-based. The note with it: Homo sapiens.

Here are results for 6 molecules from ChEMBL document CHEMBL1141062, “Synthesis and evaluation of tricyclic pyrrolopyrimidinones as dipeptide mimetics: inhibition of interleukin-1beta-converting enzyme” (Bioorg Med Chem Lett, 2005).

Caspase-8, sequence (Q14790 217-374 limits assumed): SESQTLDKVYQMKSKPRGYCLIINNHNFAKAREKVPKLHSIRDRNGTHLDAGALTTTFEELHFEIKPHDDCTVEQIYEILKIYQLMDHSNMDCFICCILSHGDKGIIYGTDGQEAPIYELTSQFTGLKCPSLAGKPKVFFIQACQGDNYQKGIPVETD
Caspase-8, sequence (Q14790 385-479 limits assumed): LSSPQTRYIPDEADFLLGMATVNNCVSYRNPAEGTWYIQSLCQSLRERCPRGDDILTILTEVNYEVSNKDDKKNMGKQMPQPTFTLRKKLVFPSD

For orientation: IC50 means the concentration at which inhibition is half-maximal. `O=C1C[C@H](NC(=O)[C@@H]2CCc3nc4cc(-c5ccc(Cl)cc5)nc-4c(O)n32)C(O)O1` (some centres undefined): the IC50 in assay [1] amounted to 4810 nM; in assay [2] it was 10000 nM; in assay [3] it was 97 nM; in assay [4] it was 830 nM.
Turning to `O=C1C[C@H](NC(=O)[C@@H]2CCc3nc4cc(-c5ccccc5Cl)nc-4c(O)n32)C(O)O1` (some centres undefined), the IC50 is 336 nM in assay [1], 1840 nM in assay [2], 14 nM in assay [3] and 252 nM in assay [4].
`O=C1C[C@H](NC(=O)[C@@H]2CCc3nc4cc(-c5cccc(Cl)c5)nc-4c(O)n32)C(O)O1` (some centres undefined): the IC50 worked out at 1820 nM in assay [1], 4390 nM in assay [2], 55 nM in assay [3] and 529 nM in assay [4].
The corresponding values for `CC(C)(C)c1cc2nc3n(c(O)c-2n1)[C@H](C(=O)N[C@H]1CC(=O)OC1O)CC3` (some centres undefined) are 7540 nM, 2290 nM, 421 nM and 975 nM.
On to `O=C1C[C@H](NC(=O)[C@@H]2CCc3nc4ccccc4c(=O)n32)C(O)O1` (some centres undefined), for which the IC50 in assay [1] was 10000 nM; in assay [2] it was 10000 nM; in assay [3] it was 4580 nM; in assay [4] it was 10000 nM.
Regarding `O=C1C[C@H](NC(=O)[C@@H]2CCc3nc4cc(-c5ccccc5)nc-4c(O)n32)C(O)O1` (some centres undefined), the IC50 in assay [1] stood at 3050 nM; in assay [2] it was 10000 nM; in assay [3], 264 nM; in assay [4], 1060 nM.
